According to publication PMC10299677, “Fluorinated Benzofuran and Dihydrobenzofuran as Anti-Inflammatory and Potential Anticancer Agents” (International Journal of Molecular Sciences, 2023):
Entries after “also recorded” stand apart in the source; their conditions may differ.

Key:
PGE2 = PGE2 release in LPS-treated macrophages (BMDM); assay type: cell-based, C57BL/6J mice; details: for effect on PGE2 production in response to LPS: 10 µM for compounds 1, 7, 9, 50 µM for others; for effect on PGE2 production in response to LPS / blocking of PGE2 formation in response to LPS: 10 ng/mL LPS 24 h; for IC50: compounds 30 min prior to 10 ng/mL LPS for 24 h; for blocking of PGE2 formation in response to LPS: 50 µM
Protocol: (§1) C57BL/6J (10–15 weeks old) male mice were obtained from the animal care facility at the American University of Beirut. All animal procedures were performed following the recommendations of the IACUC (Institutional Animal Care and Use Committee approval 16-09-M379). BMDMs were prepared and characterized as described previously by our group. BMDMs were isolated from C57BL/6J mice by flushing the femur and tibia with RPMI-1640 culture media (Sigma-Aldrich R7388), and cells were collected and centrifuged at 300× g for 5 min. The supernatant was discarded, and the pellet was resuspended in 2 mL red blood lysis 10% (Sigma-Aldrich R7767) medium in PBS and incubated for 5 min at room temperature. After diluting the suspension of cells with 5 mL of RPMI containing 10% FBS and 1% penicillin–streptomycin, cells were centrifuged at 300× g for 5 min, and the cell pellet was resuspended in RPMI media containing 10% FBS supplemented with 15% L929-conditioned medium containing macrophage-colony stimulating factor (M-CSF1) and plated on […]. Cells were allowed to proliferate and differentiate for 5–6 days. Cells were harvested, washed, and allowed to adhere overnight in RPMI containing 10% FBS for treatment. Cells were previously characterized by flow cytometry as macrophages using this method. […] Cells were plated at 0.8 × 10^6 cells per 3.8 cm^2 well [27].
(§2) BMDMs were then treated with different concentrations of the benzofuran and dihydrobenzofuran derivatives for 30 min prior to the addition of 10 ng/mL LPS for 24 h. […] The supernatants were assessed for IL-6, PGE2, CCL2, and nitrite, the stable derivative of NO, as described previously.
(§3) IL-6, CCL2, nitrite (for NO), and PGE2 concentrations from 3–5 independent experiments were expressed as percentage of LPS alone and as mean ± SEM. COX activity was determined as percentage of PGE2 produced from exogenous arachidonic acid. Curve fitting and calculation of IC50 values were performed using GraphPad Prism (version 9.5.1 Software, La Jolla, CA, USA).

[1] = tested on: zymosan-induced air pouch inflammation; experiment: Subcutaneous zymosan-induced air pouch model of inflammation; assay type: in vivo, C57BL/6J mice; details: 50 nmol per pouch co-injected with 1% zymosan, 24 h
Protocol: Figure 5 Effect of fluorinated benzofuran and dihydrobenzofuran on inflammation in the zymosan-treated sterile air pouch model in mice. (A) A timeline for the zymosan-induced inflammation experiments of the air pouch model in C57/BL6 mice. The pouch was formed on day 1 and refilled on day 4 with sterile air. Mice were injected at day 6 with 1% zymosan (w/v in saline), or 0.5 mL of saline for control mice. An amount of 50 nmol of compounds 2, 3, 5, and 6, or vehicle, were co-injected into the air pouch. At 24 h post-treatment, exudates were collected. (B) Recruited cells in the pouch and PGE2 production. (C) Gene expressions of inflammatory enzymes Ptgs2 and Nos2, proinflammatory cytokines Il1α and Il1β, and chemokines Ccl3 and Ccl4. Data correspond to the mean ± SEM (n = 6–8 mice per group); * p < 0.05 compared to the zymosan-treated cells (one-way ANOVA followed by Dunnett’s test).
C57BL/6J female mice (8-week-old, 20–25 g) were kept at 5 per cage on a 12 h light–dark cycle with cotton cocoon as enrichment in temperature- and humidity-controlled rooms. Mice were provided with food and water ad libitum, and food intake and body weight were monitored throughout the study period. Approval for use of animals was obtained from the IACUC (16-11-393). Dorsal air pouches were created in mice as previously described. Six days after the initial injection of sterile air, 0.5 mL of saline containing 100 µM of benzofuran compounds 2, 3, 5, or 6 (50 nmol per pouch) or 0.2% DMSO as vehicle was co-injected in the pouch with 0.5 mL of 0.9% saline (for the control group) or 0.5 mL of 1% zymosan (w/v, for zymosan and zymosan + compound) (Sigma-Aldrich, 400140). At 24 h after treatment, the animals were sacrificed by CO2 inhalation and the air pouch washed, the exudates collected, and the cell number determined. As previously reported, the main subtype of leukocytes present in the air pouch were neutrophils (75%) and monocytes–macrophages (12–15%), as determined by selective flow cytometry. The concentrations of PGE2, CCL2, and IL-6 and the gene expression were assessed as described previously.
For gene expression, RT-PCR was performed as described previously. Briefly, cell pellets obtained by centrifugation of air pouch exudates at 300× g for 5 min at 4 °C were suspended in TriPure (Sigma Aldrich 11667165001). An amount of 2 μg of total RNA was reverse-transcribed using iScript cDNA synthesis kit (Bio-Rad Laboratories, 1708891). RT-PCR was carried out on CFX384 cycler using iTaq Universal SYBR Green Supermix kit (Bio-Rad Laboratories, 1725121) and the primers obtained from TIB Molbiol (Berlin, Germany). Oligonucleotide sequences were according to the references, except for Ptgs2 and Nos2, which were as follows: Ptgs2 (F): […]; Ptgs2 (R): […]; Nos2 (F): […]; Nos2 (R): […]. Gene expression was calculated using ^ΔΔCT method relative to the housekeeping gene 18S.

CCL2 = CCL2 release in LPS-treated macrophages (BMDM); assay type: cell-based, C57BL/6J mice; details: for effect on CCL2 secretion: 10 µM for compound 1, 50 µM for others, LPS 24 h; for IC50: Mus musculus, Macrophage, compounds 30 min prior to 10 ng/mL LPS for 24 h
Protocol: as §1, §2, §3

IL-6 mRNA = experiment: LPS-dependent IL-6 mRNA in THP-1-derived macrophages (RT-PCR); assay type: cell-based, human; details: 50 µM, 10 ng/ml LPS 6 h
Protocol: F i g u re S3: Eff ect of benzofuran compounds on the lev els of LP S -dependent mRNA of CCL2 and IL-6 in THP-1 –deriv ed macrophages. Human-monoc yti c cell l ine-THP-1 wer e treat ed with PMA (25 nM for 48 hours) th en in cub ated with 50 μM compounds for 30 minutes b efo re the addit ion of 10 ng/ml LP S fo r 6 hours. Gene ex pression of IL6 and CCL2 were measur ed by RT-PCR and the v alu es wer e nor mal ized to GAPDH. Results represent means ± SEM by one way ANOVA followed by Dunnett test.

SMILES | IC50 (PGE2; Mus musculus, Macrophage) [nM] | IC50 (CCL2) [nM] | IC50 (PGE2) [nM] | effect on PGE2 production in response to LPS (PGE2) | CCL2 formation in air pouch, ELISA [1] | IL-6 production in air pouch, ELISA [1] | PGE2 levels in air pouch exudates [1] | number of cells of the air pouch exudates [1] | expression of Ccl4 in air pouch cells ([1]; RT-PCR) | effect on CCL2 secretion (CCL2) | blocking of PGE2 formation in response to LPS (PGE2) | effect on IL-6 mRNA levels (IL-6 mRNA) | gene expression of proinflammatory genes (Il1a, Il1b, Ccl3, Ccl4, Ptgs2, Nos2) in air pouch cells ([1]; RT-PCR)
COC(=O)CC1(O)Oc2ccc(Br)cc2C1(F)F (stereo not shown) [Compound 8] | 20500 | 19300 |  | inhibited partial; also recorded: partial inhibition |  |  |  |  |  | significant decreases |  |  | 
O=C(O)/C=C1\Oc2ccc(Br)cc2C1(F)F [Compound 3] | 1480 | 1500 |  |  | inhibited |  | inhibited | significantly reduced | modestly inhibited | significant decreases | more than 50% | to a lesser extent | 
COC(=O)/C=C1/Oc2ccc(Br)cc2C1(F)F [Compound 1] |  | 8000 |  |  |  |  |  |  |  | moderate effect |  | decreased significantly | 

The remaining molecules from weak to strong by IC50 (PGE2; Mus musculus, Macrophage), led by results:

IC50 (PGE2; Mus musculus, Macrophage) [nM] | IC50 (CCL2) [nM] | IC50 (PGE2) [nM] | SMILES | effect on PGE2 production in response to LPS (PGE2) | CCL2 formation in air pouch, ELISA [1] | IL-6 production in air pouch, ELISA [1] | PGE2 levels in air pouch exudates [1] | number of cells of the air pouch exudates [1] | expression of Ccl4 in air pouch cells ([1]; RT-PCR) | effect on CCL2 secretion (CCL2) | blocking of PGE2 formation in response to LPS (PGE2) | effect on IL-6 mRNA levels (IL-6 mRNA) | gene expression of proinflammatory genes (Il1a, Il1b, Ccl3, Ccl4, Ptgs2, Nos2) in air pouch cells ([1]; RT-PCR)
1920 | 1520 | 1910 | O=C(O)/C=C1/Oc2ccc(Br)cc2C1(F)F [Compound 2] |  |  | inhibited | inhibited | significantly reduced |  | significant decreases | more than 50% | decreased significantly | strong inhibition
1920 |  |  | O=C(O)Cc1oc2ccc(-c3ccccc3)cc2c1F [Compound 5] | very potent inhibitors | inhibited |  |  | significantly reduced |  |  |  |  | 
1120 |  |  | C=C(C)c1ccc2oc(CC(=O)O)c(F)c2c1 [Compound 6] | very potent inhibitors | inhibited | inhibited | inhibited | significantly reduced | modestly inhibited |  |  |  | 
